Experimental data published in patent publication US6472348B1, “Pyridone derivatives and herbicides” (Kumiai Chemical Industry Co., Ltd., priority 1996, dated 2002).

Key:
[1] = system: pale smartweed (Po); test: Test Example 3: herbicidal effects by upland field foliage treatment; type: in vivo; parameters: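 grade of growth control; 5 = at least 90%; 4 = 70 to 90%; 3 = 50 to 70%; 2 = 30 to 50%; 1 = 10 to 30%; 0 = under 10%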
In short: (§1)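 Sowing into sand pots with a 120 cm^2 surface, followed by soil covering and 2 weeks of greenhouse growth, preceded the leaf treatment. Scoring of weed control took place on the 14th day afterwards according to set evaluation criteria.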

[2] = system: Diaitaria ciliaris (Di); test: as above; type: in vivo; parameters: scale not given here
In short: as §1

[3] = system: barnyardgrass (Ec); test: as above; type: in vivo; parameters: scale not given here
In short: as §1

[4] = system: common lambsquarters (Ch); test: as above; type: in vivo; parameters: scale not given here
In short: as §1

[5] = system: rice flatsedge (Ci); test: as above; type: in vivo; parameters: scale not given here
In short: as §1

[6] = system: slender amaranth (Am); test: as above; type: in vivo; parameters: scale not given here
In short: as §1

[7] = system: pale smartweed (Po); test: Test Example 11: crop plant selectivity by upland field foliage treatment (corn), herbicidal effects; type: in vivo; parameters: scale not given here; settings: upland field foliage treatment (corn test), dose 1.6 g ai/10a, 14th day after treatment
In short: (§2)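 Corn with pale smartweed, slender amaranth, common lambsquarters and China jute sown in sand-filled pots and grown 2 weeks in a greenhouse before foliage treatment. Herbicidal effect and crop phytotoxicity scored on day 14 after treatment against a rating standard.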

[8] = system: common lambsquarters (Ch); test: as above; type: in vivo; parameters: scale not given here; settings: upland field foliage treatment (corn test), dose 1.6 g ai/10a, 14th day after treatment
In short: as §2

[9] = system: China jute (Ab); test: as above; type: in vivo; parameters: scale not given here; settings: upland field foliage treatment (corn test), dose 1.6 g ai/10a, 14th day after treatment
In short: as §2

[10] = system: slender amaranth (Am); test: as above; type: in vivo; parameters: scale not given here; settings: upland field foliage treatment (corn test), dose 1.6 g ai/10a, 14th day after treatment
In short: as §2

[11] = system: pale smartweed (Po); test: Test Example 9: crop plant selectivity by upland field foliage treatment (wheat), herbicidal effects; type: in vivo; parameters: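 grade of growth control; 5 = at least 90%; 4 = 70 to 90%; 3 = 50 to 70%; 2 = 30 to 50%; 1 = 10 to 30%; 0 = under 10%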; settings: dose 1.6 g ai/10a, 14th day after treatment
In short: (§3)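 Wheat and weeds sown in sand-filled pots, grown 2 weeks in a greenhouse, then foliage-treated. Herbicidal effect and crop phytotoxicity were scored 14 days after treatment against a rating scale.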

[12] = system: common lambsquarters (Ch); test: as above; type: in vivo; parameters: scale not given here; settings: dose 1.6 g ai/10a, 14th day after treatment
In short: as §3

[13] = system: China jute (Ab); test: as above; type: in vivo; parameters: scale not given here; settings: dose 1.6 g ai/10a, 14th day after treatment
In short: as §3

[14] = system: slender amaranth (Am); test: as above; type: in vivo; parameters: scale not given here; settings: dose 1.6 g ai/10a, 14th day after treatment
In short: as §3

[15] = system: wheat (Tr); test: Test Example 9: crop plant selectivity by upland field foliage treatment (wheat), phytotoxicity; settings: dose 1.6 g ai/10a, 14th day after treatment;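 further: grade of crop injury; 5 = at least 90%; 4 = 70 to 90%; 3 = 50 to 70%; 2 = 30 to 50%; 1 = 10 to 30%; 0 = under 10%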
In short: as §3

[16] = system: bulrush (Sc); test: Test Example 1: herbicidal effects by paddy field soil treatment; type: in vivo; settings: 100 g of the active ingredient per 10 ares, 21st day after the application, index 0-5 of Table 47;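 further: grade of growth control; 5 = at least 90%; 4 = 70 to 90%; 3 = 50 to 70%; 2 = 30 to 50%; 1 = 10 to 30%; 0 = under 10%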
In short: (§4)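 Scoring of herbicidal effect came 21 days after application of 100 g active ingredient per 10 ares to flooded (3 cm) paddy-soil pots sown with barnyardgrass, monochoria and bulrush, kept in a greenhouse.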

[17] = system: monochoria (Mo); test: as above; type: in vivo; settings: 100 g of the active ingredient per 10 ares, 21st day after the application, index 0-5 of Table 47;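 further: grade of growth control; 5 = at least 90%; 4 = 70 to 90%; 3 = 50 to 70%; 2 = 30 to 50%; 1 = 10 to 30%; 0 = under 10%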
In short: as §4

[18] = system: barnyardgrass (Ec); test: as above; type: in vivo; settings: 100 g of the active ingredient per 10 ares, 21st day after the application, index 0-5 of Table 47
In short: as §4

[19] = system: corn (Ze); test: Test Example 11: crop plant selectivity by upland field foliage treatment (corn), phytotoxicity; settings: upland field foliage treatment, dose 1.6 g ai/10a, 14th day after treatment
In short: as §2

[20] = system: soybean (Gl); test: Test Example 10: crop plant selectivity by upland field foliage treatment (soybean), phytotoxicity; settings: dose 1.6 g ai/10a, 14th day after treatment
Protocol: (§5) (Test on Crop Plant Selectivity by Upland Field Foliage Treatment)
(§6) In a plastic pot (surface area: 600 cm^2) filled with sand, soybean (Gl), pale smartweed (Po), slender amaranth (Am), common lambsquarters (Ch) and China jute (Ab) were sown and cultured in a green house for 2 weeks. […] The plants were then cultured in a green house, and the evaluation of the herbicidal effects and phytotoxicity was conducted on the 14th day after the treatment in accordance with the standards as identified in Table 47.

[21] = system: pale smartweed (Po); test: Test Example 10: crop plant selectivity by upland field foliage treatment (soybean), herbicidal effects; type: in vivo; settings: dose 1.6 g ai/10a, 14th day after treatment
Protocol: as §5, §6

[22] = system: common lambsquarters (Ch); test: as above; type: in vivo; settings: dose 1.6 g ai/10a, 14th day after treatment
Protocol: as §5, §6

[23] = system: China jute (Ab); test: as above; type: in vivo; settings: dose 1.6 g ai/10a, 14th day after treatment
Protocol: as §5, §6

[24] = system: slender amaranth (Am); test: as above; type: in vivo; settings: dose 1.6 g ai/10a, 14th day after treatment
Protocol: as §5, §6

[25] = system: pale smartweed (Po); test: Test Example 2: herbicidal effects by upland field soil treatment; type: in vivo; settings: 100 g of the active ingredient per 10 ares;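 further: grade of growth control; 5 = at least 90%; 4 = 70 to 90%; 3 = 50 to 70%; 2 = 30 to 50%; 1 = 10 to 30%; 0 = under 10%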
From the text: (§7) (Test on Herbicidal Effects by Upland Field Soil Treatment)

[26] = system: barnyardgrass (Ec); test: as above; type: in vivo; settings: 100 g of the active ingredient per 10 ares
From the text: as §7

[27] = system: common lambsquarters (Ch); test: as above; type: in vivo; settings: 100 g of the active ingredient per 10 ares
From the text: as §7

[28] = system: rice flatsedge (Ci); test: as above; type: in vivo; settings: 100 g of the active ingredient per 10 ares
From the text: as §7

[29] = system: slender amaranth (Am); test: as above; type: in vivo; settings: 100 g of the active ingredient per 10 ares
From the text: as §7

[30] = system: Digitaria ciliaris (Di); test: as above; type: in vivo; settings: 100 g of the active ingredient per 10 ares
From the text: as §7

[31] = system: Diaitaria ciliaris (Di); test: Test Example 4: crop plant selectivity by upland field soil treatment (cotton), herbicidal effects; type: in vivo; settings: evaluated 21st day after application
Protocol: (Test on Crop Plant Selectivity by Upland Field Soil Treatment)
In a plastic pot (surface area: 600 cm^2) filled with sand, cotton (Go), Diaitaria ciliaris (Di), green foxtail (Se), pale smartweed (Po), slender amaranth (Am), common lambsquarters (Ch) and China jute (Ab) were sown and covered with soil. […] The plants were then cultured in a green house, and the evaluation of the herbicidal effects and phytotoxicity was conducted on the 21st day after the application in accordance with the standards as identified in Table 47. Symbol—represents “not tested”.

[32] = system: cotton (Go); test: Test Example 4: crop plant selectivity by upland field soil treatment (cotton), phytotoxicity; type: in vivo; parameters: scale not given here; settings: evaluated 21st day after application
In short: (§8)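 Weeds and cotton, sown in sand and topped with soil, received a soil-applied treatment. Evaluation after three weeks in a greenhouse followed a standard rating scale.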

[33] = system: pale smartweed (Po); test: Test Example 4: crop plant selectivity by upland field soil treatment (cotton), herbicidal effects; type: in vivo; parameters: scale not given here; settings: evaluated 21st day after application
In short: as §8

[34] = system: common lambsquarters (Ch); test: as above; type: in vivo; parameters: scale not given here; settings: evaluated 21st day after application
In short: as §8

[35] = system: China jute (Ab); test: as above; type: in vivo; parameters: scale not given here; settings: evaluated 21st day after application
In short: as §8

[36] = system: slender amaranth (Am); test: as above; type: in vivo; parameters: scale not given here; settings: evaluated 21st day after application
In short: as §8

[37] = system: green foxtail (Se); test: as above; type: in vivo; parameters: scale not given here; settings: dose 6.3 g ai/10 a, evaluated 21st day after application
In short: as §8

[38] = 100 g of the active ingredient per 10 ares, evaluated on the 14th day after treatment
[39] = 21st day after the application, index 0-5 of Table 47
[40] = 100 g active ingredient per 10 ares, evaluated 14th day after treatment
[41] = evaluated on the 21st day after application

Compound | Herbicidal effects Po [1, 38] | Herbicidal effects Di [2, 38] | Herbicidal effects Ec [3, 38] | Herbicidal effects Ch [4, 38] | Herbicidal effects Ci [5, 38] | Herbicidal effects Am [6, 38] | Herbicidal effects Po [7] | Herbicidal effects Ch [8] | Herbicidal effects Ab [9] | Herbicidal effects Am [10] | Herbicidal effects Po [11] | Herbicidal effects Ch [12] | Herbicidal effects Ab [13] | Herbicidal effects Am [14] | Phytotoxicity Tr [15] | Herbicidal effects Sc [16] | Herbicidal effects Mo [17] | Herbicidal effects Ec [18] | Phytotoxicity Ze [19] | Phytotoxicity Gl [20] | also measured
Cn1c(C(F)(F)F)ccc(-c2cc(OC3CCCC3)c(Cl)cc2F)c1=O [1-26] | 5 | 5 | 5 | 5 | 5 | 5 | 5 | 5 | 5 | 5 | 5 | 5 | 5 | 5 | 2 | 5 | 5 | 5 | 2 | 2 | Herbicidal effects Po [21]: 5; Herbicidal effects Ch [22]: 5; Herbicidal effects Ab [23]: 5; Herbicidal effects Am [24]: 5; Herbicidal effects Po [25, 39]: 5; Herbicidal effects Ec [26, 39]: 5; Herbicidal effects Ch [27, 39]: 5; Herbicidal effects Ci [28, 39]: 5; Herbicidal effects Am [29, 39]: 5; Herbicidal effects Di [30, 39]: 5
C#CCSc1cc(-c2ccc(C(F)(F)F)n(C)c2=O)c(Cl)cc1Cl [1-52] | – | – | – | – | – | – | 5 | 5 | 5 | 5 | 5 | 5 | 5 | 5 | 1 | – | – | – | 2 | 2 | Herbicidal effects Po [21]: 5; Herbicidal effects Ch [22]: 5; Herbicidal effects Ab [23]: 5; Herbicidal effects Am [24]: 5; Herbicidal effects Po [25, 39]: 5; Herbicidal effects Ec [26, 39]: 5; Herbicidal effects Ch [27, 39]: 5; Herbicidal effects Ci [28, 39]: 5; Herbicidal effects Am [29, 39]: 5; Herbicidal effects Di [30, 39]: 5
CC(C)Oc1cc(-c2ccc(C(F)(F)F)n(C)c2=O)c(F)cc1Cl [Compound No. 1-14] | 5 | 5 | 5 | 5 | 5 | 5 | – | – | – | – | – | – | – | – | – | 5 | 5 | 5 | – | – | Herbicidal effects Di ([31]; dose 1.6 g ai/10 a): 5; Herbicidal effects Di ([31]; dose 6.3 g ai/10 a): 5; Phytotoxicity Go ([32]; dose 1.6 g ai/10 a): 0; Phytotoxicity Go ([32]; dose 6.3 g ai/10 a): 0; Herbicidal effects Po ([33]; dose 1.6 g ai/10 a): 5; Herbicidal effects Po ([33]; dose 6.3 g ai/10 a): 5; Herbicidal effects Ch ([34]; dose 1.6 g ai/10 a): 5; Herbicidal effects Ch ([34]; dose 6.3 g ai/10 a): 5; Herbicidal effects Ab ([35]; dose 1.6 g ai/10 a): 4; Herbicidal effects Ab ([35]; dose 6.3 g ai/10 a): 5; Herbicidal effects Am ([36]; dose 1.6 g ai/10 a): 5; Herbicidal effects Am ([36]; dose 6.3 g ai/10 a): 5; Herbicidal effects Se [37]: 5; Herbicidal effects Po [25, 39]: 5; Herbicidal effects Ec [26, 39]: 5; Herbicidal effects Ch [27, 39]: 5; Herbicidal effects Ci [28, 39]: 5; Herbicidal effects Am [29, 39]: 5; Herbicidal effects Di [30, 39]: 5
Cn1c(C(F)(F)F)ccc(-c2cc(Oc3ccccc3)c(Cl)cc2F)c1=O [Compound No. 1-22] | 5 | 5 | 5 | 5 | 5 | 5 | 5 | 5 | 5 | 5 | 5 | 5 | 5 | 5 | 2 | 5 | 5 | 5 | 2 | 2 | Herbicidal effects Po [21]: 5; Herbicidal effects Ch [22]: 5; Herbicidal effects Ab [23]: 5; Herbicidal effects Am [24]: 5
Cn1c(C(F)(F)F)ccc(-c2c(F)cc(Cl)c3oc(C(Br)Br)cc23)c1=O [Compound No. 4-27, 3-(7-chloro-2-dibromomethyl-5-fluorobenzofuran-4-yl)-1-methyl-6-trifluoromethyl-2-(1H)-pyridone] | – | – | – | – | – | – | 5 | 5 | 5 | 5 | 5 | 5 | 5 | 5 | 2 | 5 | 5 | 5 | 2 | – | Herbicidal effects Po [1, 40]: 5; Herbicidal effects Di [2, 40]: 5; Herbicidal effects Ec [3, 40]: 4; Herbicidal effects Ch [4, 40]: 5; Herbicidal effects Ci [5, 40]: 5; Herbicidal effects Am [6, 40]: 5; melting point: 107 to 109 °C; Herbicidal effects Po [25, 41]: 5; Herbicidal effects Ec [26, 41]: 4; Herbicidal effects Ch [27, 41]: 5; Herbicidal effects Ci [28, 41]: 5; Herbicidal effects Am [29, 41]: 5; Herbicidal effects Di [30, 41]: 5
